# According to article PMC3265452 (PLoS Neglected Tropical Diseases, 2012):
# Where a name gives a salt, the structure may show the parent alone.
# Biological target: AaDOP2 (Aedes aegypti, UniProt H6D5H2)
# Assay: AaDOP2 antagonist screen of the LOPAC1280 library (HEK-CRELuc-Aadop2 cells, luminescence)
# Format: cell-based
# Conditions: not given
# Chain of AaDOP2 (H6D5H2 1-476): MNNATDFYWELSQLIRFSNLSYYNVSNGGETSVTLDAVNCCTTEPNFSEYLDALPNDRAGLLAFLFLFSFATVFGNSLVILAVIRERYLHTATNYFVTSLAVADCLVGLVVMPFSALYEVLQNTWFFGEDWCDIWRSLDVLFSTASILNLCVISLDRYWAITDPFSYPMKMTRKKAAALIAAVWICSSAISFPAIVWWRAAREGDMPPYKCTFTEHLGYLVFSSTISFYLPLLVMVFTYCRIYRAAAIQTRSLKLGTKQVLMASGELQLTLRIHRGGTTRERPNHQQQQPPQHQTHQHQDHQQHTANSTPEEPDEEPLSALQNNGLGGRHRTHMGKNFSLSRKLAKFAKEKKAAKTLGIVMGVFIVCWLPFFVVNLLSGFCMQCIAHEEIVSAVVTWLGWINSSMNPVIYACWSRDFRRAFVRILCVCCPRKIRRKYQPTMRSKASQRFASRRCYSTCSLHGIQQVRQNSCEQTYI
row,Compound,"Compound effect (percent receptor signaling in presence of test compound, relative lux units relative to the SCH23390 control)"
1,"N[C@@H](Cc1ccc(O)c(I)c1)C(=O)O [Compound 660, 3-Iodo-L-tyrosine]",100
2,"CN1[C@@H]2CC[C@H]1C[C@@H](OC(=O)C(CO)c1ccccc1)C2 (stereo partly drawn) [Compound 13, Atropine sulfate]",78
3,"NC1CCN(O)C1=O (racemic) [Compound 110, (±)-HA-966]",107
4,"O=c1n(CCCN2CCN(c3cccc(Cl)c3)CC2)nc2ccccn12 [Compound 1188, Trazodone hydrochloride]",97
5,"CCN(CC)CCOC(=O)c1ccc(N)cc1 [Compound 1001, Procaine hydrochloride]",96
6,"CN(C)CCCN1c2ccccc2Sc2ccc(Cl)cc21 [Compound 305, Chlorpromazine hydrochloride]",95
7,"O=S(=O)(O)C1CCNCC1 [Compound 991, Piperidine-4-sulphonic acid]",105
8,"CNCC[C@H](Oc1ccc(C(F)(F)F)cc1)c1ccccc1.Cl [Compound 512, S-(+)-Fluoxetine hydrochloride]",77
9,"O=C(c1ccc2c(c1)OCCO2)N1CCCCC1 [Compound 352, CX 546]",97
10,"N#C/C(=C\c1ccc(O)c(O)c1)C(=O)NCCCNC(=O)/C(C#N)=C/c1ccc(O)c(O)c1 [Compound 1179, Tyrphostin AG 537]",112
11,"COc1cc(C(=O)OCCCN2CCCN(CCCOC(=O)c3cc(OC)c(OC)c(OC)c3)CC2)cc(OC)c1OC [Compound 389, Dilazep hydrochloride]",62
12,"COc1ccc2c3c1OC1C(=O)CC[C@@]4(O)[C@@H](C2)N(CC2CC2)CC[C@]314.Cl (single isomer, unassigned; (-)) [Compound 836, (-)-3-Methoxynaltrexone hydrochloride]",75
13,"NCCc1c[nH]c2ccc(C(N)=O)cc12.O=C(O)/C=C\C(=O)O [Compound 332, 5-Carboxamidotryptamine maleate]",119
14,"CNC(=O)[C@H]1O[C@@H](n2cnc3c(NCc4cccc(I)c4)nc(Cl)nc32)[C@H](O)[C@@H]1O [Compound 353, Chloro-IB-MECA]",120
15,"CCCN(CCC)[C@@H]1CCc2c(F)ccc(O)c2C1.Cl [Compound 1245, R(+)-UH-301 hydrochloride]",97
16,"CC(N)=NCc1cccc(CN)c1.Cl.Cl [Compound 1262, 1400W dihydrochloride]",96
17,"O=C(O)/C=C/C(=O)O.O=C(O)/C=C/C(=O)O.O=C(O)/C=C/C(=O)O.O=C1CCCN1CC#CCN1CCCC1.O=C1CCCN1CC#CCN1CCCC1 [Compound 908, Oxotremorine sesquifumarate salt]",88
18,"Cc1ccc(S(=O)(=O)N[C@@H](CCCCN)C(=O)CCl)cc1.Cl [Compound 1198, Na-p-Tosyl-L-lysine chloromethyl ketone hydrochloride]",100
19,2-Methylthioadenosine diphosphate trisodium [Compound 826],92
20,"C[C@]12C=CC(=O)C=C1CC[C@@H]1C2=CC[C@]2(C)[C@@H](C(=O)CN3CCN(c4cc(N5CCCC5)nc(N5CCCC5)n4)CC3)CC[C@@H]12.O=C(O)/C=C\C(=O)O [Compound 1234, U-74389G maleate]",88
21,"CCN(CCCl)Cc1ccccc1Br.Cl [Compound 310, DSP-4 hydrochloride]",111
22,"CN(C)CCC(c1ccc(Cl)cc1)c1ccccn1.O=C(O)/C=C\C(=O)O (racemic) [Compound 243, (±)-Chlorpheniramine maleate]",77
23,"C[N+](C)(C)CCOC(=O)CCC(=O)OCC[N+](C)(C)C [Compound 1116, Succinylcholine chloride]",94
24,"C[C@@H]1O[C@@H](O[C@H]2C[C@@H](O)[C@]3(CO)[C@H]4[C@H](O)C[C@]5(C)[C@@H](C6=CC(=O)OC6)CC[C@]5(O)[C@@H]4CC[C@]3(O)C2)[C@H](O)[C@H](O)[C@H]1O [Compound 903, Ouabain]",50
25,"O=C(CCNNC(=O)c1ccncc1)NCc1ccccc1 [Compound 839, Nialamide]",87
26,"C=CCN1CCC2(C)c3cc(O)ccc3CC1C2C.Cl (single isomer, unassigned; (+)) [Compound 123, (+)-N-Allylnormetazocine hydrochloride]",90

# Same assay, conditions: 10 µM compound, 300 nM dopamine, 2 hr; hit = compound effect <20
row,Compound,"Compound effect (percent receptor signaling in presence of test compound, relative lux units relative to the SCH23390 control)"
1,"CC(=O)NBr [Compound 164, N-Bromoacetamide]",104%
2,"Nc1nc2c(nc(Br)n2[C@@H]2O[C@@H]3COP(=O)([O-])O[C@H]3[C@H]2O)c(=O)[nH]1.[Na+] [Compound 157, 8-Bromo-cGMP sodium]",117%
3,"CC(N)(Cc1ccc(O)c(O)c1)C(=O)O (racemic) [Compound 797, (±)-3-(3,4-dihydroxyphenyl)-2-methyl-DL-alanine]",99%
4,"NC(=O)C1=CN([C@@H]2O[C@H](COP(=O)(O)OP(=O)(O)OC[C@H]3O[C@@H](n4cnc5c(N)ncnc54)[C@H](OP(=O)(O)O)[C@@H]3O)[C@@H](O)[C@H]2O)C=CC1 [Compound 864, NADPH tetrasodium]",92%
5,"C[C@@H](CN1CCC(Cc2ccccc2)CC1)[C@@H](O)c1ccc(O)cc1.Cl [Compound 1053, Ro 25-6981 hydrochloride]",70%
6,"CC(C(O)c1ccc(O)cc1)N1CCC(Cc2ccccc2)CC1.CC(C(O)c1ccc(O)cc1)N1CCC(Cc2ccccc2)CC1.O=C(O)C(O)C(O)C(=O)O (stereo not drawn) [Compound 643, Ifenprodil tartrate]",64%
7,"CC(C)(C)NCC(O)COc1cccc2[nH]c(=O)[nH]c12.Cl (racemic) [Compound 334, (±)-CGP-12177A hydrochloride]",97%
